Test in all cases: NCI-60 cell line screen, 48 h
Assay [1] concerns COLO 205 colon.
Assay [2] relates to NCI-H226 lung.
For assay [3], the system named is SF-268 CNS.
In assay [4] the test system is SK-MEL-2 melanoma.
The test system of assay [5] is MALME-3M melanoma.
Assay [6] has as its system KM12 colon.
Assay [7] concerns OVCAR-8 ovarian.
Assay [8] deals with OVCAR-3 ovarian.
Assay [9] deals with UACC-257 melanoma.
Assay [10] concerns HS 578T breast.

SMILES strings stand for the structures. Values joined by “and” are separate entries in the source; they are usually repeats but may differ in a detail not shown here. Equal values may be shown once.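 96-well plates; 48 h exposure; 5 concentrations. Endpoints by linear interpolation between flanking doses. Not reached: highest tested concentration assigned. GI50 marks 50% less growth. TGI: total growth inhibition.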 Where only a bound is given, the exact number is not on record here.

This note sets out measurements from PubChem BioAssay (NCI).

Consider `O=c1c2ccccc2c(=O)n2n1-c1cccc(c1)CSSCc1cccc-2c1`, for which the GI50 in assay [1], in assay [2], in assay [3], in [4], in assay [5] and in [6] was above 100 µM in each case. Besides, the GI50 in assay [7] and in assay [8] was above 100 µM in each case. The TGI in assay [1], in [2], in assay [3], in [4], in [5] and in assay [6] was above 100 µM each time. The TGI in [7] and in assay [8] was above 100 µM each time.
Consider `O=C(O)c1ccccc1NS(=O)(=O)c1ccc(Cl)cc1`, for which the TGI in assay [1], in [2], in assay [3], in [4], in assay [5] and in assay [9] was above 100 µM in each case. The TGI in assay [7] was above 100 µM.
As for `CC(C)(Sc1cc(C(C)(C)C)c(O)c(C(C)(C)C)c1)Sc1cc(C(C)(C)C)c(O)c(C(C)(C)C)c1`, the TGI in assay [10], in assay [1], in assay [3], in assay [4], in assay [5] and in assay [6] was above 100 µM in each case. For the same compound, the TGI in assay [9] and in assay [7] was above 100 µM in each case.
Take `O=c1cc(-c2cccc(Cl)c2)[nH]c2cc3c(cc12)OCO3`: the TGI in assay [10] is 1.74 µM; in [1], 10.4 µM; in assay [4], 0.582 µM and 0.72 µM; in assay [6], 28.1 µM; in assay [9] it was above 100 µM; in [7], 35 µM and 18.1 µM. Moreover, the values for the GI50 in assay [5] and in assay [7] were 0.31 µM and 0.76 µM, respectively.
For the compound `[Cu].c1ccc2c(c1)C1=NC2=NC2=NC(=NC3=NC(=NC4=NC(=N1)c1ccccc14)c1ccccc13)c1ccccc12`, the GI50 in assay [10], in assay [3], in [4], in assay [5], in [6] and in assay [9] was above 100 µM each time. For the same compound, the GI50 in assay [7] and in assay [8] was above 100 µM each time. The TGI in [10], in assay [3], in [4], in assay [5], in [6] and in assay [9] was above 100 µM each time. Further, the TGI in assay [7] and in assay [8] was above 100 µM in each case.
Turning to `CC1COS(=O)N1c1ccccc1` (configuration not stated), the TGI in assay [1], in [2], in [3], in assay [4], in assay [5] and in assay [6] was above 100 µM in each case. The TGI in assay [9] and in assay [7] was above 100 µM in each case.
For the compound `O=C1c2ccccc2C(=O)N1C/C=N/NS(=O)(=O)c1cccc([N+](=O)[O-])c1`, the TGI in assay [1], in assay [3], in assay [4], in [5], in [6] and in assay [9] was above 100 µM in each case. The TGI in assay [7] is above 100 µM.
Consider `CSC(=Nc1ccc([N+](=O)[O-])cc1C#N)NC(=O)c1ccccc1`, for which the TGI in assay [1], in assay [2], in assay [3], in assay [5], in assay [6] and in assay [9] was above 100 µM throughout. Besides, the TGI in assay [7] and in assay [8] was above 100 µM throughout.
As for `CCC(=O)N1C(=S)SC[C@H]1C(=O)OC`, the TGI in assay [1], in assay [2], in assay [3], in assay [5], in assay [6] and in [9] was above 100 µM in each case. For the same compound, the TGI in [7] and in assay [8] was above 100 µM each time.
For `CC[O-].CC[O-].[O-]c1ccccc1C=NC12CC3CC(CC(C3)C1)C2.[O-]c1ccccc1C=NC12CC3CC(CC(C3)C1)C2.[Ti+4]`, the GI50 is 67.3 µM in assay [1]; above 100 µM in [2]; 92.5 µM in [3]; 35.8 µM in assay [4]; 64.2 µM in assay [5]; above 100 µM in assay [6]. Also, the GI50 in assay [9], in assay [7] and in assay [8] was above 100 µM each time. Also, the TGI in [1], in [2], in [3], in [4], in [5] and in assay [6] was above 100 µM throughout. The TGI in assay [9], in assay [7] and in assay [8] was above 100 µM throughout.
Take `[O-]c1ccccc1C=NCCN=Cc1ccccc1[O-].[O]=[U+2]=[O]`: the GI50 in assay [1] is above 51.8 µM; in assay [2] it was above 42.5 µM; in [3] it was 25.1 µM; in assay [4], 22 µM; in assay [5] it was 39.7 µM; in assay [6], 57.1 µM. For the same compound, the values for the GI50 in assay [9], in [7] and in [8] were 34.5 µM, 31.2 µM and 24.5 µM, respectively. Moreover, the TGI is above 85.1 µM in assay [1]; above 63.6 µM in assay [2]; 66.5 µM in assay [3]; above 62.7 µM in [4]; above 63.5 µM in assay [5]; above 100 µM in [6]. For the same compound, the TGI was above 78.1 µM in assay [9], above 94.6 µM in [7] and 95.3 µM in assay [8].
In the case of `Cc1cccc(-c2nc(=S)[nH][nH]2)c1`, the TGI in assay [1], in assay [2], in assay [3], in assay [4], in assay [5] and in [6] was above 100 µM each time. Also, the TGI in assay [9], in assay [7] and in assay [8] was above 100 µM each time.
Consider `O=C(c1ccccc1)[C@H]1Nc2ccc(Cl)cc2[C@H]2c3ccccc3O[C@H]21`, for which the TGI in [1] was determined as 37.4 µM; in assay [3] it was 33.9 µM; in assay [4] it was 27.3 µM; in [5], 31.7 µM; in assay [6] it was 30.2 µM; in [9], 8.48 µM. For the same compound, the TGI in assay [7] was determined as 34.6 µM; in assay [8] it was 25.7 µM.
As to `Clc1ccc2c(NC3CCC(NC4CCCCC4)CC3)ccnc2c1` (configuration not stated), the GI50 in [1] is 1.65 µM; in assay [2], 12.8 µM; in assay [3], 10.5 µM; in assay [4] it was 1.97 µM; in [5], 2.43 µM; in assay [6], 5.34 µM. Further, the GI50 in assay [9] is 2.18 µM; in [7], 4.43 µM; in assay [8] it was 5.34 µM. For the same compound, the TGI in assay [1] came to 3.2 µM; in assay [2], 46.5 µM; in [3], 25.6 µM; in [4], 3.95 µM; in [5], 5.1 µM; in assay [6] it was 18.9 µM. Moreover, the TGI is 4.17 µM in [9], 19.3 µM in assay [7] and 23.2 µM in assay [8].
As for `O=[N+]([O-])c1ccc(Cl)c(C2CC(c3cccc4ccccc34)=Nc3ccccc3S2=O)c1` (configuration not stated), the TGI was 97.7 µM in assay [1]; above 54.5 µM in assay [2]; above 100 µM in assay [3]; 37.4 µM in assay [4]; 42.5 µM in assay [5]; above 100 µM in [6]. In addition, the TGI is above 86.4 µM in [9], 20.8 µM in assay [7] and 83.4 µM in assay [8].
For the compound `O=NN(CC1(O)OCC(O)C(O)C1O)C(Cc1c[nH]c2ccccc12)C(=O)O` (configuration not stated), the TGI in [1], in assay [4], in assay [5], in assay [6], in [9] and in assay [7] was above 100 µM throughout. The TGI in assay [8] is above 100 µM.
For the compound `Cc1cc(C)c2c(c1)CSCc1cc(C)cc(C)c1-2`, the TGI in [1] is 73.3 µM; in assay [2], above 100 µM; in assay [3], above 100 µM; in [4], 43.9 µM; in assay [5], 56.8 µM; in [6] it was above 100 µM. Further, the TGI in assay [9] is 74.1 µM; in [7] it was above 100 µM; in [8], above 100 µM.
For `COC(=O)C1=C(C(=O)OC)C23CC4CCC2(C(=O)C1O3)C4(C)C` (configuration not stated), the TGI in assay [1], in assay [2], in [3], in assay [4], in assay [5] and in assay [6] was above 100 µM each time. The TGI in assay [9], in assay [7] and in assay [8] was above 100 µM throughout.
Consider `O=C1CN=C(c2ccccc2)c2ccncc2N1`, for which the TGI is above 100 µM in assay [1]; above 100 µM in assay [2]; above 100 µM in [3]; above 100 µM in assay [4]; above 100 µM in assay [5]; 37 µM in assay [6]. The TGI in assay [9] is 72.5 µM; in assay [7], above 100 µM; in assay [8] it was above 100 µM.
Consider `CCOc1ccc2c(c1)[n+]([O-])c(C(N)=O)c(N)[n+]2[O-]`, for which the TGI in assay [1], in assay [2], in assay [3], in assay [4], in assay [5] and in [6] was above 100 µM in each case. The TGI in assay [9], in assay [7] and in [8] was above 100 µM in each case.
On to `CN(N=O)C(=O)NC(CCCCNC(=O)OCc1ccccc1)C(=O)OCc1ccccc1` (configuration not stated), for which the TGI in [1] is 47.2 µM; in assay [2] it was above 100 µM; in assay [4] it was 85.5 µM; in assay [5] it was 89.6 µM; in [6] it was above 100 µM; in assay [9], 33.5 µM. Besides, the TGI in assay [7] was 36.7 µM; in assay [8], 98.1 µM.
Consider `Cc1cnoc1/N=C1\C=C(Nc2oncc2C)C(=O)c2ccccc21`, for which the TGI in [1], in assay [2], in [3], in assay [4], in assay [5] and in [6] was above 100 µM in each case. In addition, the TGI in assay [9], in assay [7] and in assay [8] was above 100 µM throughout.
With `CCOP(=O)(OCC)C(C(=O)OC)C(=O)C(=O)Nc1cccc([N+](=O)[O-])c1` (configuration not stated), the TGI in [1], in assay [2], in assay [3], in assay [4], in [5] and in assay [6] was above 100 µM in each case. Also, the TGI in [9], in assay [7] and in [8] was above 100 µM in each case.
As for `CC1=NC2(C(=O)O)C3(C(=O)O)N=C(C)OC3(C(F)(F)F)C2(C(F)(F)F)O1` (configuration not stated), the TGI in assay [1], in [2], in [3], in assay [4], in [5] and in assay [6] was above 100 µM each time. Moreover, the TGI in assay [9], in [7] and in assay [8] was above 100 µM in each case.
As for `NCCNCCNCc1c2ccccc2c(CNCCNCCN)c2ccccc12`, the TGI in [1], in [2], in [3], in assay [4], in [5] and in assay [6] was above 100 µM throughout. Moreover, the TGI in [9], in [7] and in [8] was above 100 µM each time.
On to `CS(=O)(=O)N(CCC#N)c1ccc(/C=C2\N=C(c3ccccc3Cl)OC2=O)cc1`, for which the TGI in assay [1], in assay [2], in assay [3], in assay [4], in assay [5] and in assay [6] was above 100 µM each time. Moreover, the TGI in [9], in [7] and in [8] was above 100 µM each time.
